{
  "source": "patent US20250331550A1",
  "about": "“AEROSOL-GENERATING ARTICLE EMBEDDED AVERSIVE AGENT” (PHILIP MORRIS PRODUCTS S.A., priority 2022, published 2025)",
  "origin": "cited, not measured here",
  "note": "Structures can show the parent of a compound that is named as a salt.",
  "data": [
    {"tested_on": "test panel", "details": "reciprocal of the dilution that still has a bitter taste; quinine hydrochloride set at 200,000", "values": [
      {"compound": "C[C@@]12C[C@@H](c3ccoc3)OC(=O)[C@@H]1CC[C@]1(C)[C@H]2[C@@H]2C=C[C@@]1(O)C(=O)O2", "note": "[Columbin, columbin]", "Bitterness value": "60,000,000"},
      {"compound": "COC1=C[C@@H](C)[C@@H]2C[C@H]3OC(=O)C[C@H]4C(C)=C(OC)C(=O)[C@H]([C@@]2(C)C1=O)[C@@]34C", "note": "[Quassin, quassin]", "Bitterness value": "13,000,000"},
      {"compound": "amarogentin", "Bitterness value": "58,000,000"},
      {"compound": "CC1=C[C@H]2[C@H]3[C@H](C(C)=C4[C@H]5OC(=O)[C@@H](C)[C@@H]5CC[C@](C)(O)[C@@H]43)[C@@]13[C@@H]2[C@@](C)(O)CC[C@H]1[C@H](C)C(=O)O[C@@H]13", "note": "[Absinthin, absinthin]", "Bitterness value": "3,000,000"},
      {"compound": "C=C[C@H]1C[N@@]2CC[C@H]1C[C@H]2[C@H](O)c1ccnc2ccc(OC)cc12", "note": "[Quinine hydrochloride, quinine hydrochloride]", "Bitterness value": "200,000"}
    ]}
  ]
}
